{
  "source": "patent US20090325964A1",
  "about": "“Piperazine Metabotropic Glutamate Receptor 5 (MGLUR5) Negative Allosteric Modulators For Anxiety/Depression” (Wyeth, priority 2008, published 2009)",
  "biological_target": "T1, rat mGluR5 receptor (Rattus norvegicus, UniProt P31424)",
  "T1 construct": "expressed in transfected cells; host or cells: HEK-293",
  "T1 sequence (P31424 21-1203)": "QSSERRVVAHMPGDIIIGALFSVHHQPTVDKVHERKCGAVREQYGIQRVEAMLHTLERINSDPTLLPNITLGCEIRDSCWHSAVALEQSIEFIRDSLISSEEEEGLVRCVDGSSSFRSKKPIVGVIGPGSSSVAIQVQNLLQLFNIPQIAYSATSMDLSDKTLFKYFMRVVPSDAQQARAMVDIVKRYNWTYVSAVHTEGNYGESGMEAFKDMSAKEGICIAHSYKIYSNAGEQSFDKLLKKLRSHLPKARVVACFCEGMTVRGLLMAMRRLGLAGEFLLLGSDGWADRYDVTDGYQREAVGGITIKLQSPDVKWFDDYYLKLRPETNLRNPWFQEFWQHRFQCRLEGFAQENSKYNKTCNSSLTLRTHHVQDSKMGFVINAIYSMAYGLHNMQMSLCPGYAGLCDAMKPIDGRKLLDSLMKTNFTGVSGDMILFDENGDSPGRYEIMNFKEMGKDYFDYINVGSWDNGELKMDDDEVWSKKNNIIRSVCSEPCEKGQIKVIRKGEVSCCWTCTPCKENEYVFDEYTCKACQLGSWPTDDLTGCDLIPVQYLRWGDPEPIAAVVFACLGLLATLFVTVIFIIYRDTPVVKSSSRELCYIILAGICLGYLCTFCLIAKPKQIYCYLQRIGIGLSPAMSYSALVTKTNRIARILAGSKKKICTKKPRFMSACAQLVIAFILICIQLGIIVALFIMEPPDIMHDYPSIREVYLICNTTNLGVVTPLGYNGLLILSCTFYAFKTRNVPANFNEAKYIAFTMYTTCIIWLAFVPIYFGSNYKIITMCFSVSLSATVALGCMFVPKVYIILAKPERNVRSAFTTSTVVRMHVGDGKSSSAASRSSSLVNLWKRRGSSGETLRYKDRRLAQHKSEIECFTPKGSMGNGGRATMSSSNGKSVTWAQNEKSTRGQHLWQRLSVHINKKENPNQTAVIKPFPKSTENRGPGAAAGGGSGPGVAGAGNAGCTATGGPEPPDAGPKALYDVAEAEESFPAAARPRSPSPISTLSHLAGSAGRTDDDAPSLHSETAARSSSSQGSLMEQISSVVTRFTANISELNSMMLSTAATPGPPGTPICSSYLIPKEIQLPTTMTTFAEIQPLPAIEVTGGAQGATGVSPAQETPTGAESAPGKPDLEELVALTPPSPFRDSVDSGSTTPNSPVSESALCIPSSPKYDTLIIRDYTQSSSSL",
  "test": "[3H]-MPEP displacement binding assay, HEK-293 cell membranes expressing rat mGluR5",
  "conditions": "for Ki: read-out: Median Ki",
  "summary_of_the_method": "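Membranes from HEK-293 cells expressing rat mGluR5 (12-25 μg protein), incubated 60 min at room temperature with 4 nM [3H]-MPEP in 50 mM Tris pH 7.5, then filtered. Nonspecific binding defined with 10 μM MPEP.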",
  "key": {"[1]": {"conditions": "@ 10 μM compound, Biological Activity, Table 2A, read-out: PCT INHIB (%) @ 10 μM"}, "[2]": {"conditions": "single point, @ 10 μM compound, Table 3A, read-out: PCT INHIB (%) @ 10 μM"}, "[3]": {"conditions": "[3H]-MPEP displacement, rat mGluR5"}, "[4]": {"conditions": "single point, @ 10 μM compound, Table 5, read-out: PCT INHIB (%) @ 10 μM"}},
  "note": "Like-named read-outs stand apart in the source and are kept apart here.",
  "data": [
    {"smiles": "COc1ccc(C(=O)N2CCN(c3ncccn3)CC2)cc1C#Cc1ccc(OCc2ccccc2)cc1", "note": "[Compound 358, 2-[4-(3-{[4-(benzyloxy)phenyl]ethynyl}-4-methoxybenzoyl)piperazin-1-yl]pyrimidine]", "values": [
      {"measurement": "IC50", "setting": "[3H]-MPEP displacement, rat mGluR5, no Ki given, read-out: IC50 (printed in the Median Ki column instead of a Ki)", "value": "> 10", "unit": "µM"}
    ]},
    {"smiles": "O=C(c1cccc(C#Cc2ccccc2)c1)N1CCN(c2ccc(F)cc2)CC1", "note": "[Compound 79, 1-(4-fluorophenyl)-4-[3-(phenylethynyl)benzoyl]piperazine]", "values": [
      {"measurement": "inhibition at 10 µM", "setting": "[1]", "value": 28, "unit": "%"}
    ]},
    {"smiles": "O=C(c1cccc(OCc2ccccc2)c1)N1CCN(c2ccccn2)CC1", "note": "[Compound 152, 1-[3-(benzyloxy)benzoyl]-4-pyridin-2-ylpiperazine]", "values": [
      {"measurement": "inhibition at 10 µM", "setting": "[2]", "value": 0, "unit": "%"}
    ]},
    {"smiles": "O=C(c1cncc(C#Cc2ccccc2)c1)N1CCN(c2ccncc2)CC1", "note": "[Compound 138, 1-{[5-(phenylethynyl)pyridin-3-yl]carbonyl}-4-pyridin-4-ylpiperazine]", "values": [
      {"measurement": "inhibition at 10 µM", "setting": "[1]", "value": 0, "unit": "%"}
    ]},
    {"smiles": "COc1ccc(C(=O)N2CCN(c3ccccn3)CC2)cc1C#CC1=CCCCC1", "note": "[Compound 15, 1-[3-(cyclohex-1-en-1-ylethynyl)-4-methoxybenzoyl]-4-pyridin-2-ylpiperazine]", "values": [
      {"measurement": "inhibition at 10 µM", "setting": "1 h, single point, @ 10 μm compound, Table 1A, read-out: PCT INHIB (%) @ 10 μm", "value": 76, "unit": "%"},
      {"measurement": "Ki", "value": 236, "unit": "nM"}
    ]},
    {"smiles": "Cc1cccc(OCc2cccc(C(=O)N3CCN(c4ccccn4)CC3)c2)c1", "note": "[Compound 164, 1-{3-[(3-methylphenoxy)methyl]benzoyl}-4-pyridin-2-ylpiperazine]", "values": [
      {"measurement": "Ki", "setting": "[3H]-MPEP 4 nM, Table 4A", "value": 1750, "unit": "nM"}
    ]},
    {"smiles": "Cc1cc(C)nc(N2CCN(C(=O)c3cccc(C#Cc4ccccc4)c3)CC2)n1", "note": "[Compound 111, 4,6-dimethyl-2-{4-[3-(phenylethynyl)benzoyl]piperazin-1-yl}pyrimidine]", "values": [
      {"measurement": "inhibition at 10 µM", "setting": "[1]", "value": 0, "unit": "%"}
    ]},
    {"smiles": "O=C(c1ccc(OCC2CC2)c(C#Cc2ccccn2)c1)N1CCN(c2ccccn2)CC1", "note": "[Compound 323, 1-{[4-(cyclopropylmethoxy)-3-(pyridin-2-ylethynyl)phenyl]carbonyl}-4-pyridin-2-ylpiperazine]", "values": [
      {"measurement": "Ki", "setting": "[3]", "value": 198, "unit": "nM"}
    ]},
    {"smiles": "COc1ccc(C(=O)N2CCCN(c3ncccc3C(F)(F)F)CC2)cc1C#Cc1ccccn1", "note": "[Compound 209, 1-[4-methoxy-3-(pyridin-2-ylethynyl)benzoyl]-4-[3-(trifluoromethyl)pyridin-2-yl]-1,4-diazepane]", "values": [
      {"measurement": "Ki", "setting": "[3]", "value": 674, "unit": "nM"}
    ]},
    {"smiles": "O=C(c1cccc(C#Cc2ccccn2)c1)N1CCN(c2nccc(-c3ccccc3)n2)CC1", "note": "[Compound 106, 4-phenyl-2-{4-[3-(pyridin-2-ylethynyl)benzoyl]piperazin-1-yl}pyrimidine]", "values": [
      {"measurement": "inhibition at 10 µM", "setting": "[1]", "value": 86, "unit": "%"},
      {"measurement": "Ki", "setting": "Biological Activity, Table 2A", "value": 2.19, "unit": "nM"}
    ]},
    {"smiles": "O=C(c1cccc(C#Cc2ccccn2)c1)N1CCN(c2ncccc2C(F)(F)F)CC1", "note": "[Compound 146, 1-[3-(pyridin-2-ylethynyl)benzoyl]-4-[3-(trifluoromethyl)pyridin-2-yl]piperzine]", "values": [
      {"measurement": "PCT INHIB (%) @ 10 μM", "setting": "@ 10 μM compound, Biological Activity, Table 2A", "value": 48, "unit": "%"}
    ]},
    {"smiles": "O=S(=O)(c1cccc(C#Cc2ccccc2)c1)N1CCN(c2ccccn2)CC1", "note": "[Compound 176, 1-{[3-(phenylethynyl)phenyl]sulfonyl}-4-pyridin-2-ylpiperazine]", "values": [
      {"measurement": "inhibition at 10 µM", "setting": "[4]", "value": 0, "unit": "%"}
    ]},
    {"smiles": "COc1ccc(C(=O)N2CCN(c3cc(Cl)cc(Cl)c3)CC2)cc1C#Cc1ccccn1", "note": "[Compound 271, 1-(3,5-dichlorophenyl)-4-[4-methoxy-3-(pyridin-2-ylethynyl)benzoyl]piperazine]", "values": [
      {"measurement": "Ki", "setting": "[3]", "value": 18, "unit": "nM"}
    ]},
    {"smiles": "O=S(=O)(c1cccc(C#CC2=CCCCC2)c1)N1CCN(c2ccccn2)CC1", "note": "[Compound 173, 1-{[3-(cyclohex-1-en-1-ylethynyl)phenyl]sulfonyl}-4-pyridin-2-ylpiperazine]", "values": [
      {"measurement": "inhibition at 10 µM", "setting": "[4]", "value": 0, "unit": "%"}
    ]},
    {"smiles": "O=C(c1ccc(OC(F)(F)F)c(C#Cc2ccccn2)c1)N1CCN(c2ncccc2Cl)CC1", "note": "[Compound 336, 1-(3-chloropyridin-2-yl)-4-[3-(pyridin-2-ylethynyl)-4-(trifluoromethoxy)benzoyl]piperazine]", "values": [
      {"measurement": "Ki", "setting": "[3]", "value": 1070, "unit": "nM"}
    ]},
    {"smiles": "O=C(c1cccc(C#Cc2ccccc2)c1)N1CCN(c2ncccc2C(F)(F)F)CC1", "note": "[Compound 129, 1-[3-(phenylethynyl)benzoyl]-4-[3-(trifluoromethyl)pyridin-2-yl]piperazine]", "values": [
      {"measurement": "inhibition at 10 µM", "setting": "[1]", "value": 45, "unit": "%"}
    ]},
    {"smiles": "N#Cc1cccc(COc2cccc(C(=O)N3CCN(c4ccccn4)CC3)c2)c1", "note": "[Compound 156, 3-({3-[(4-pyridin-2-ylpiperazin-1-yl)carbonyl]phenoxy}methyl)benzonitrile]", "values": [
      {"measurement": "inhibition at 10 µM", "setting": "[2]", "value": 0, "unit": "%"}
    ]}
  ]
}
